According to patent US11696913B2, “Prolonged ectoparasite-controlling agent for animal” (MITSUI CHEMICALS AGRO, INC., priority 2017, dated 2023):
Where two headings read alike, the source gives them in different places.

Columns and labels:
[1] = system: Ctenocephalides felis; test: In vitro contact test with fleas; conditions: read-out: insecticidal activity; for pest or weed control at 0.04 µg/cm2, 0.04 µg/cm2: dose 0.04 μg/cm^2, dead or moribund fleas after 48 h; for pest or weed control at 0.2 µg/cm2, 0.2 µg/cm2: dose 0.2 μg/cm^2, dead or moribund fleas after 48 h; for pest or weed control at 1 µg/cm2, 1 µg/cm2: dose 1 μg/cm^2, dead or moribund fleas after 48 h
Outline: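 Activity is the percentage of fleas dead or moribund at 48 h, judged by immobility or uncoordinated movement after tapping. Tubes were coated by evaporating acetone solutions (900 ppm gives 5 μg/cm^2), then held 5-10 adult fleas of both sexes at room temperature and ambient humidity.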

[2] = system: Dermacentor variabilis; test: In vitro contact test with adult hard ticks (Dermacentor variabilis); conditions: read-out: acaricidal activity; for pest or weed control at 0.2 µg/cm2, 0.2 µg/cm2: dose 0.2 μg/cm^2, 48 h; for pest or weed control at 1 µg/cm2, 1 µg/cm2: dose 1 μg/cm^2, 48 h
Outline: (§1)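 Acaricidal activity = % ticks dead or moribund after 48 h contact with acetone-deposited compound on vial walls (e.g., 900 ppm solution → 5 μg/cm^2). Ambient conditions for R. sanguineus, 21° C./85% rel. hum. for other species; heat challenge at 45-50° C. separated climbers from moribund ticks.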

[3] = system: Rhipicephalus sanguineus; test: In vitro contact test with adult hard ticks (Rhipicephalus sanguineus); conditions: read-out: acaricidal activity; for pest or weed control at 0.2 µg/cm2, 0.2 µg/cm2: dose 0.2 μg/cm^2, 48 h; for pest or weed control at 1 µg/cm2, 1 µg/cm2: dose 1 μg/cm^2, 48 h; for pest or weed control at 0.04 µg/cm2, 0.04 µg/cm2: dose 0.04 μg/cm^2, 48 h
Outline: as §1

[4] = system: Rhipicephalus (Boophilus) microplus; test: In vitro injection test with Rhipicephalus (Boophilus) microplus (BOOPMI Inj); conditions: 168 h, laid fertile eggs after 7 days, read-out: acaricidal activity; for pest or weed control at 32 ng: dose 0.032 μg/animal injected; for pest or weed control at 0.00016 mg: dose 0.16 μg/animal injected; for pest or weed control at 0.0008 mg: dose 0.8 μg/animal injected
Outline: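 Five engorged adult females each get a 1 μl abdominal injection of compound dissolved and diluted in DMSO. Kept 7 days at 28° C./85% rel. hum.; percent activity rates egg laying and egg fertility (0% all fertile, 100% none laid or infertile).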

[5] = system: Ctenocephalides felis; test: Ctenocephalides felis in-vitro feeding test with fleas (CTECFE oral); conditions: 48 hours, read-out: insecticidal feeding activity; for pest or weed control at 0.032 ppm: dose 0.032 ppm in citrated cattle blood; for pest or weed control at 0.16 ppm: dose 0.16 ppm in citrated cattle blood; for pest or weed control at 0.8 ppm: dose 0.8 ppm in citrated cattle blood; for pest or weed control at 4 ppm: dose 4 ppm in citrated cattle blood
Outline: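 Scored as percent fleas killed (0–100%) 48 hours after feeding began. Compound, dissolved in DMSO and diluted into citrated cattle blood, was offered via a parafilm membrane to roughly 20 adult male and female C. felis at about 37° C.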

[6] = system: Dermacentor variabilis; test: Systemic treatment in-vivo test with American dog tick nymph on rats; conditions: Dermacentor variabilis, ip, intraperitoneal injection
Outline: (§2)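 Rats dosed intraperitoneally per body weight in glycerol formal (up to 25% NMP for poorly soluble compounds). 30 D. variabilis nymphs released on treatment day and weekly, 30 C. felis fleas 24 h later; live attached engorged ticks counted at 48 h (±4 h), live fleas at 24 h, efficacy versus placebo group.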

[7] = system: Ctenocephalides felis; test: Systemic treatment in-vivo test with cat flea on rats; conditions: Ctenocephalides felis, ip, intraperitoneal injection
Outline: as §2

[8] = SD 2, read-out: Geometric mean percent reduction in live tick (Dermacentor variabilis) counts compared to untreated control rats
[9] = SD 9, read-out: Geometric mean percent reduction in live tick (Dermacentor variabilis) counts compared to untreated control rats
[10] = SD 16, read-out: Geometric mean percent reduction in live tick (Dermacentor variabilis) counts compared to untreated control rats
[11] = SD 23, read-out: Geometric mean percent reduction in live tick (Dermacentor variabilis) counts compared to untreated control rats
[12] = SD 30, read-out: Geometric mean percent reduction in live tick (Dermacentor variabilis) counts compared to untreated control rats
[13] = SD 2, read-out: Geometric mean percent reduction in live flea (Ctenocephalides felis) counts compared to untreated control rats
[14] = SD 9, read-out: Geometric mean percent reduction in live flea (Ctenocephalides felis) counts compared to untreated control rats
[15] = SD 16, read-out: Geometric mean percent reduction in live flea (Ctenocephalides felis) counts compared to untreated control rats
[16] = SD 23, read-out: Geometric mean percent reduction in live flea (Ctenocephalides felis) counts compared to untreated control rats
[17] = SD 30, read-out: Geometric mean percent reduction in live flea (Ctenocephalides felis) counts compared to untreated control rats

| Compound | pest or weed control at 0.2 µg/cm2, 0.2 µg/cm2 [1] [%] | pest or weed control at 1 µg/cm2, 1 µg/cm2 [1] [%] | pest or weed control at 1 µg/cm2, 1 µg/cm2 [2] [%] | pest or weed control at 0.2 µg/cm2, 0.2 µg/cm2 [3] [%] | pest or weed control at 1 µg/cm2, 1 µg/cm2 [3] [%] | pest or weed control at 0.00016 mg [4] [%] | pest or weed control at 0.0008 mg [4] [%] | pest or weed control at 0.16 ppm [5] [%] | pest or weed control at 0.8 ppm [5] [%] | pest or weed control at 4 ppm [5] [%] | inhibition in vivo at 10 mg/kg [6, 8] [%] | inhibition in vivo at 10 mg/kg [6, 9] [%] | inhibition in vivo at 10 mg/kg [6, 10] [%] | inhibition in vivo at 10 mg/kg [6, 11] [%] | inhibition in vivo at 10 mg/kg [6, 12] [%] | inhibition in vivo at 10 mg/kg [7, 13] [%] | inhibition in vivo at 10 mg/kg [7, 14] [%] | inhibition in vivo at 10 mg/kg [7, 15] [%] | inhibition in vivo at 10 mg/kg [7, 16] [%] | inhibition in vivo at 10 mg/kg [7, 17] [%] | further results |
| --- | --- | --- | --- | --- | --- | --- | --- | --- | --- | --- | --- | --- | --- | --- | --- | --- | --- | --- | --- | --- | --- |
| CN(C(=O)c1ccc(F)cc1)c1cccc(C(=O)Nc2c(I)cc(C(F)(C(F)(F)F)C(F)(F)C(F)(F)F)cc2C(F)(F)F)c1F (centres unmarked) [Compound 37] | 95 | 95 | 90 | 90 | 90 | 100 | 100 | 95 | 95 | 95 | 100 | 100 | 99 | 99 | 80 | 100 | 97 | 97 | 100 | 80 | pest or weed control at 0.04 µg/cm2, 0.04 µg/cm2 [1]: 95%; pest or weed control at 0.2 µg/cm2, 0.2 µg/cm2 [2]: 90%; pest or weed control at 6.4 ng ([4]; dose 0.0064 μg/animal injected): 100%; pest or weed control at 32 ng [4]: 100%; pest or weed control at 0.032 ppm [5]: 95% |
| CN(C(=O)c1ccc(C(F)(F)F)nc1)c1cccc(C(=O)Nc2c(I)cc(C(F)(C(F)(F)F)C(F)(F)F)cc2C(F)(F)F)c1F [Compound 66, N-(2-fluoro-3-((2-iodo-4-(perfluoropropan-2-yl)-6-(trifluoromethyl)phenyl)carbamoyl)phenyl)-N-methyl-6-(trifluoromethyl)nicotinamide] | 95 | 95 | 90 | 90 | 90 | 100 | 100 | 95 | 95 | 95 | 100 | 100 | 100 | 100 | 95 | 100 | 100 | 100 | 100 | 79 | – |
| O=C(Nc1cccc(C(=O)Nc2c(I)cc(C(F)(C(F)(F)F)C(F)(F)F)cc2C(F)(F)F)c1F)c1ccc(C(F)(F)F)nc1 [Compound 67, N-(2-fluoro-3-((2-iodo-4-(perfluoropropan-2-yl)-6-(trifluoromethyl)phenyl)carbamoyl)phenyl)-6-(trifluoromethyl)nicotinamide] | 95 | 95 | 90 | 90 | 90 | 100 | 100 | 95 | 95 | 95 | 100 | 100 | 99 | 75 | 57 | 100 | 100 | 93 | 61 | 58 | pest or weed control at 0.04 µg/cm2, 0.04 µg/cm2 [1]: 95%; pest or weed control at 0.2 µg/cm2, 0.2 µg/cm2 [2]: 90%; pest or weed control at 0.04 µg/cm2, 0.04 µg/cm2 [3]: 90%; inhibition in vivo at 2 mg/kg [6, 8]: 100%; inhibition in vivo at 2 mg/kg [6, 9]: 95%; inhibition in vivo at 2 mg/kg [6, 10]: 32%; inhibition in vivo at 2 mg/kg [6, 11]: 20%; inhibition in vivo at 2 mg/kg [7, 13]: 100%; inhibition in vivo at 2 mg/kg [7, 14]: 96%; inhibition in vivo at 2 mg/kg [7, 15]: 78%; inhibition in vivo at 2 mg/kg [7, 16]: 11% |
| CN(C(=O)c1ccc(F)cc1)c1cccc(C(=O)Nc2c(I)cc(C(F)(C(F)(F)F)C(F)(F)F)cc2OC(F)(F)F)c1F [Compound 74] | 95 | 95 | 90 | 90 | 90 | 100 | 100 | 95 | 95 | 95 | 100 | 100 | 90 | 89 | 78 | 91 | 96 | 86 | 89 | 78 | pest or weed control at 0.04 µg/cm2, 0.04 µg/cm2 [1]: 95%; pest or weed control at 0.2 µg/cm2, 0.2 µg/cm2 [2]: 90%; pest or weed control at 0.04 µg/cm2, 0.04 µg/cm2 [3]: 90%; pest or weed control at 32 ng [4]: 100%; pest or weed control at 0.032 ppm [5]: 95% |
